What was measured:
Assay type in all cases: biochemical
[1] = molecular target: T1, Human recombinant fibroblast collagenase (collagenase-1) (Homo sapiens, UniProt P03956); assay: Collagenase-1 inhibitory activity (bovine type I collagen digestion, Coomasie blue); conditions: 2 hours at 35° C., read-out: IC50 for inhibition of collagenase-1 activity
T1 sequence (P03956 100-469): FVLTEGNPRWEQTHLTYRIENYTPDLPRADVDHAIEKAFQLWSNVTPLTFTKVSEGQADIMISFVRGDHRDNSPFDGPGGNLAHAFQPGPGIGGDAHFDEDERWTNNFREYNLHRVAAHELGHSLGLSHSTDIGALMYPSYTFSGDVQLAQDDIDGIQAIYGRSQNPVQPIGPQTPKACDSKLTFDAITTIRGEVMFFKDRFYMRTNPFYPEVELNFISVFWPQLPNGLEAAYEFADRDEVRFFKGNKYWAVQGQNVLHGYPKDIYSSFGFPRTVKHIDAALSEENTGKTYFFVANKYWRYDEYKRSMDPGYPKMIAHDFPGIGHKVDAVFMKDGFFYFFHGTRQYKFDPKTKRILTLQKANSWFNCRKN
Protocol: Collagenase -1 inhibitory activity is determined as follows: ninety six-well, flat-bottom microtiter plates are first coated with bovine type I collagen (35 ug/well) over a two-day period at 30° C. using a humidified and then dry atmosphere; plates are rinsed, air dried for 3-4 hours, sealed with Saran wrap and stored in a refrigerator. Human recombinant fibroblast collagenase and a test compound (or buffer) are added to wells (total volume=0.1 ml) and plates are incubated for 2 hours at 35° C. under humidified conditions; the amount of collagenase used per well is that causing approximately 80% of maximal digestion of collagen. The incubation media are removed from the wells, which are then rinsed with buffer, followed by water. […] Sodium dodecyl sulfate (20% in 50% dimethylformamide in water) is added to solubilize the remaining stained collagen and the optical density at 570 nm wave length is measured. The decrease in optical density due to collagenase (from that of collagen without enzyme) is compared to the decrease in optical density due to the enzyme in the presence of test compound, and percent inhibition of enzyme activity is calculated. IC50 's are determined from a range of concentrations of inhibitors (4-5 concentrations, each tested in triplicate), and KI values are calculated. […]

[2] = molecular target: collagenase-3 (Homo sapiens, UniProt P45452); assay: Collagenase-3 inhibitory activity (fluorescent substrate MCA-Pro-Leu-Gly-Dpa-Ala-Arg-NH2); conditions: room temperature, 10 minutes preincubation, fluorescence; read-out: IC50 for inhibition of collagenase-3 activity
Protocol: Collagenase-3 inhibitory activity is determined as follows:
[…] solutions of substrate (MCA-Pro-Leu-Gly-Dpa-Ala-Arg-NH2, J. Biol. Chem. 271, 1544-1550, 1996) and 10 nM stock solution of inhibitor are prepared in DMSO. They are diluted with assay buffer ([…] at pH 7.5 containing 10 mM CaCl2, 0.002% sodium azide) as needed. Recombinant pro-collagenase-3 is activated with 1 mM APMA, and stored in the assay buffer after extensive dialysis in the assay buffer. Recombinant enzyme solution (0.05 ml, 1.3 nM) is mixed with 0.05 mL of inhibitor solution at various concentrations for 10 minutes at room temperature. Then 0.025 mL of 8 μM substrate solution is added and fluorescence (λex=325; λem=405) is continuously measured at room temperature. The percent inhibition of collagenase-3 activity is determined from the effect of inhibitor at various concentrations on the change in fluorescence; the IC50 is determined graphically.
Compounds of formula I have an IC50 of about 5 nM to about 100 nM for inhibition of collagenase-3 activity.

[3] = molecular target: recombinant human stromelysin (Homo sapiens, UniProt P08254); assay: inhibition of stromelysin activity (hydrolysis of Substance P, HPLC); conditions: Substance P substrate, 30 minutes at 37° C.
Chain of recombinant human stromelysin (P08254 100-477): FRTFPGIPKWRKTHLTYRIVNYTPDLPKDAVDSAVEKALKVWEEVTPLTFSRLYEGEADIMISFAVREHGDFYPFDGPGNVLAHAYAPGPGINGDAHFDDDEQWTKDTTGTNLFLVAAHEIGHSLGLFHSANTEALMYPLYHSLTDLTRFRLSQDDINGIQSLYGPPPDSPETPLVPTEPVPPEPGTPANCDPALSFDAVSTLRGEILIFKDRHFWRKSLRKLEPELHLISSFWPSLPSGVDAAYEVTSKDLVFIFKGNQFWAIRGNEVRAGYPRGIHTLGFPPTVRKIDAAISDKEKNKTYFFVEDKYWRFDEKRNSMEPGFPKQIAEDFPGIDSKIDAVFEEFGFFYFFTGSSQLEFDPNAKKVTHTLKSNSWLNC
Protocol: One test to determine the inhibition of stromelysin activity is based on its hydrolysis of Substance P using a modified procedure of Harrison et al (Harrison, R. A., Teahan J., and Stein R., A semicontinuous, high performance chromatography based assay for stromelysin, Anal. Biochem. 180, 110-113 (1989)). In this assay, Substance P is hydrolyzed by recombinant human stromelysin to generate a fragment, Substance P 7-11, which can be quantitated by HPLC. In a typical assay, a 10 mM stock solution of a compound to be tested is diluted in the assay buffer to 50 μM, mixed 1:1 with 8 μg recombinant human stromelysin (mol. wt. 45-47 kDa, 2 Units; where 1 Unit produces […] of Substance P 7-11 in 30 minutes) and incubated along with 0.5 mM Substance P in a final volume of 0.125 ml for 30 minutes at 37° C. The reaction is stopped by adding 10 mM EDTA and Substance P 7-11 is quantified on RP-8 HPLC. The IC50 for inhibition of stromelysin activity and Ki are calculated from control reaction without the inhibitor.
Compounds of formula I have an IC50 of about 10 nM to about 5 μM for inhibition of stromelysin activity.

IC50 [1] | IC50 [2] | IC50 [3] | Compound
~200 nM | ~20 nM | – | CNC(=O)[C@H](Cc1ccccc1)NC(=O)C1(C(S)CCc2ccccc2)CCCCC1 (stereo partly drawn) [2(d), (S)-2-[N-(1-(1-mercapto-3-phenylpropyl)-cyclohexanecarbonyl)amino]-3-phenylpropionic acid N-methylamide]
– | – | ~70 nM | CCO[C@H]1CC[C@@](CS)(C(=O)N[C@@H](Cc2ccccc2)C(=O)Nc2ccccc2)CC1 [2(e), (S)-2-[N-(1-mercaptomethyl-cis-4-ethoxycyclohexanecarbonyl)amino]-3-phenylpropionic acid N-phenylamide]

— patent US6034136A, “Certain cyclic thio substituted acylaminoacid amide derivatives” (Novartis AG, priority 1998, dated 2000)
